The text below walks through data of US20240335470A1, “CAR T CELLS FOR TREATING CD19+, CD20+ OR CD22+ TUMORS OR B-CELL DERIVED AUTO-IMMUNE DISEASES” (OSPEDALE PEDIATRICO BAMBINO GESU', priority 2020, published 2024).

SMILES strings stand for the structures.

In one assay the test system is iC9.CAR.CD19 DAUDI cells. Briefly: In vitro activation of iC9 by AP1903, DAUDI (FACS, qPCR). In kind it is cell-based, human. The settings on record: 20 nM AP1903. How it is done:
(§1) To induce the in vitro activation of iC9, cells were treated once with 20 nM of AP1903 (Medchemexpress, Cat. HY-16046). The percentage of CAR+ cells after the AP1903 treatment was evaluated by FACS at the indicated time points. […] Control cohort was infused with sterile PBS as vehicle solution. Tumor was monitored by weekly IVIS imaging analysis.
(§2) Flow cytometry analysis was performed to determine cell surface antigens expression; monoclonal antibodies for CD45, CD3, CD19, CD22, CD10, CD34 (all from Becton Dickinson, USA) were combined with different fluorescence according to needs. iC9.CAR.CD19 expression was detected using a mAb directed to hCD34 epitope (anti-CD34 QBend-10 PE from R&D System, USA), or CD19 CAR Detection Reagent (Biotin; Miltenyi, Germany). Flow-cytometry analysis was performed using a BD LSRFortessa X-20 cytometer (BD Biosciences, USA) and analyzed by FACSDiva software (BD Biosciences, USA). FACS-sorting on CAR-transduced tumor cell lines was performed on a FACSAria (BD Biosciences, USA).
(§3) The average of vector copy number (VCN) per cell was determined by real-time PCR, using a TaqMan probe designed on the retroviral construct using the Primer Express® software (Applied Biosystems) and reported in Table 2 (iC9 Probe and primers iC9).
(§4) For VCN, each sample was analyzed in triplicate and the average of threshold cycles was used to quantify DNA copies in relation to the mean values of negative control samples. Relative gene expression was calculated using the house-keeping gene ACT1N1 (Hs_02249516 ACT1N1, ThermoFisher Scientific) qPCR was performed employing QuantStudio 12K Flex Real-Time PCR System (ThermoFisher Scientific). For IG/TR PCR-MRD of the DPs, each MRD value was calculated from the corresponding standard curve, and the results were normalized for values of the housekeeping Albumin gene. […]

The subject of assay [1] is iC9.CAR.CD19 NALM-6 cells. Briefly: In vitro activation of iC9 by AP1903, NALM-6 (qPCR). Conditions: 20 nM AP1903. In kind it is cell-based, human. Here is the method:
as §1, §3, §4

In a further assay the test system is iC9.CAR.CD19 RAJI cells. Nature of the assay: In vitro activation of iC9 by AP1903, RAJI (qPCR). The format is cell-based, human. Conditions: 20 nM AP1903. Here is the method:
as §1, §3, §4

The subject of assay [2] is iC9.CAR.CD19LH-DAUDI cells. Nature of the assay: NSG xenograft, iC9.CAR.CD19LH-DAUDI, iC9 activation by AP1903. The format is in vivo, NSG mice. Here is the method: Schematic representation of the experimental design, with iC9.CAR.CD19LH positive FF-Luciferase positive DAUDI cells infused at day-3. At Day 0, mice were evaluated for leukemia engraftment and treated with 100 μg/mouse of AP1903 from day 0 to day 28. (B) Bioluminescence images of each control untreated mouse and each AP1903 treated mouse. Mice were monitored for more than 30 days after AP1903 withdrawal (C) Bioluminescence values over time for each treated mouse in the two cohorts, un-treated (black lines) or AP1903 treated (dotted line) mice. (D) Kaplan-Meier survival curve analysis of leukaemia-bearing mice untreated (black line) or AP1903 treated (blue line). ****p-value=<0.00001. The only mouse (#20) showing a persisting positive signal at IVIS analysis after AP1903 administration was sacrificed at day 35 together with a negative control (#11) and a positive control (mouse not exposed to AP1903 administration, #6), to characterize the leukemia cells.
as §1

A further assay has as its system iC9-T cells. Conditions: patients with GVHD after haploidentical iC9-T cells infusion; cited from earlier work.
Assay [3] deals with DAUDI, RAJI and NALM-6 iC9.CAR+ cells. Briefly: In vitro activation of iC9 by AP1903, all cellular models (FACS, VCN). The format is cell-based, human. How it is done: as §1, §2, §3, §4

Regarding `CC[C@H](C(=O)N1CCCC[C@H]1C(=O)O[C@H](CCc1ccc(OC)c(OC)c1)c1cccc(OCC(=O)NCCNC(=O)COc2cccc([C@@H](CCc3ccc(OC)c(OC)c3)OC(=O)[C@@H]3CCCCN3C(=O)[C@@H](CC)c3cc(OC)c(OC)c(OC)c3)c2)c1)c1cc(OC)c(OC)c(OC)c1` [AP1903], the “re-expansion of iC9.CAR+ leukemic cells on prolonged culture” value in the assay with iC9.CAR.CD19 DAUDI cells (FIG. 8E) is on record as “not associated to re-expansion”. Also, in the assay with iC9.CAR.CD19 DAUDI cells (threshold value, FIG. 10E), the “MFI of CAR expression in AP1903 treated cells” value is recorded as 142±22. Moreover, the “transgene (TG) positivity in remaining cells after AP1903 exposure (qPCR)” value in the assay on iC9.CAR.CD19 DAUDI cells (DAUDI cells) was found to be 22.8%; in assay [1], 0.6%; in the assay with iC9.CAR.CD19 RAJI cells, 18.6%. In addition, the “complete CAR+ leukemia eradication, number of mice” value in assay [2] (AP1903 100 μg/mouse i.p. day 1 to day 28) was 9 out of 10. Further, the “survival of treated mice” value in assay [2] (AP1903 100 μg/mouse i.p., even after drug suspension, to day 63) is given as 100%. Also, in assay [2] (until day 63 (endpoint of the experiment)), the leukemia recurrence entry was “no mice showing leukemia recurrence”. Moreover, in the assay with iC9-T cells, the “residual iC9-T cells after AP1903 administration” value is recorded as 1%. Besides, the “percentage of CAR+ leukemic cells” value in assay [3] (20 nM AP1903, 6 hours) is recorded as “significant reduction in the percentage of CAR+ leukemic cells”. For the same compound, the “CD19 antigen detection on cells remaining after AP1903” value in assay [3] (20 nM AP1903, FIG. 8E, 10B, 10D) was “completed re-established detection of CD19 antigen”. Also, in assay [3] (across all the considered cellular models, 20 nM, FIG. 10F), the “average of VCN threshold in AP1903 treated B cells” value came to 0.1±0.1.
